{
  "source": "paper PMC7612957",
  "about": "(Science (New York, N.Y.), 2020)",
  "key": {"NRP1 b1 domain [1]": {"target": "T1, NRP1 b1 domain (Homo sapiens, UniProt O14786)", "assay": "ITC binding to NRP1 b1 domain"}, "NRP1 b1 domain [2]": {"target": "T1, NRP1 b1 domain", "assay": "ITC competition: EG00229 versus S1 CendR peptide for NRP1 b1", "assay_type": "binding", "details": "pre-incubation with EG00229, N=3"}, "SARS-CoV-2": {"test_system": "SARS-CoV-2", "assay_type": "cell-based"}, "NRP1": {"test_system": "NRP1", "details": "selective NRP1 antagonist, binds the b1 CendR binding pocket; ref [14]; cited from earlier work"}, "NRP1 b1 domain [3]": {"target": "T2, NRP1 b1 domain", "T2 chain": "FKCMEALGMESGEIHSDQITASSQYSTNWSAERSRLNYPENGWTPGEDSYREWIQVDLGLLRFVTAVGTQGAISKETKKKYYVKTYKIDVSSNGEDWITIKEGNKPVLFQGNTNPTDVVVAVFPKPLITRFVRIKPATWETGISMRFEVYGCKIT", "assay": "ITC"}, "NRP1 b1 domain [4]": {"target": "T2, NRP1 b1 domain", "assay": "ITC"}},
  "note": "Entries after “also recorded” stand apart in the source; their conditions may differ. Like-named read-outs stand apart in the source and are kept apart here. Where no end group is shown, it is not given here.",
  "data": [
    {"molecule": "NSPRRAR [S1 CendR peptide]", "values": [
      {"measurement": "Kd", "setting": "NRP1 b1 domain [1]; affinity for NRP1 b1 domain, pH 7.5, N=3, fit with 1-to-1 ratio binding", "result": 20.3, "unit": "µM"}
    ]},
    {"molecule": "NC(N)=NCCC[C@H](NC(=O)c1sccc1NS(=O)(=O)c1cccc2nsnc12)C(=O)O", "note": "[EG00229]", "values": [
      {"measurement": "Kd", "setting": "NRP1 b1 domain [1]; read-out: Kd for NRP1 b1 domain, EG00229, pH 5.5, N=3, fit with 1-to-1 ratio binding", "result": 11, "unit": "µM"},
      {"measurement": "Kd", "setting": "NRP1 b1 domain [1]; read-out: Kd for NRP1 b1 domain, EG00229, pH 7.5, N=3, fit with 1-to-1 ratio binding", "result": 5.1, "unit": "µM"},
      {"measurement": "inhibition of S1 CendR peptide binding to b1", "setting": "NRP1 b1 domain [2]", "result": "blocks S1 CendR peptide binding; also recorded: inhibited the direct binding between b1 and the S1 CendR peptide"},
      {"measurement": "reduction of SARS-CoV-2 infection by EG00229", "setting": "SARS-CoV-2", "result": "reduced the efficiency of SARS-CoV-2 infection"},
      {"measurement": "inhibition of VEGF-A binding", "setting": "NRP1", "result": "inhibits VEGF-A binding"}
    ]},
    {"molecule": "NSPRRAR", "note": "[S1 CendR peptide (679NSPRRAR685)]", "values": [
      {"measurement": "Kd", "setting": "NRP1 b1 domain [3]", "result": 13, "unit": "µM"},
      {"measurement": "Kd", "setting": "NRP1 b1 domain [4]", "result": 20.3, "unit": "µM"}
    ]}
  ]
}
